The record followed here is PubChem BioAssay (NCI).

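96-well plates; 48 h exposure; 5 concentrations. Endpoints by linear interpolation between flanking doses. Not reached: highest tested concentration assigned. GI50 marks 50% less growth. TGI marks complete inhibition of growth.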

Test systems include HCT-15 colon; CAKI-1 renal; SW-620 colon; UO-31 renal; OVCAR-4 ovarian; SF-268 CNS; K-562 leukemia; SF-539 CNS; OVCAR-3 ovarian.
Holding throughout (assay): inhibition of tumour cell growth, NCI panel, 48 h

For the compound `COCCOC(C)C(/C=N/NC(N)=S)=N/NC(N)=S` (stereo not given), the GI50 in the assay with HCT-15 colon is greater than 100 µM; with CAKI-1 renal, greater than 100 µM; with SW-620 colon it was greater than 100 µM; in the assay with UO-31 renal it was 0.0513 µM; in the assay on OVCAR-4 ovarian, 0.0355 µM; in the assay on SF-268 CNS, greater than 100 µM. Further, the GI50 with K-562 leukemia is 0.0574 µM; with SF-539 CNS, greater than 100 µM; in the assay on OVCAR-3 ovarian, 0.0252 µM. For the same compound, the TGI with HCT-15 colon, with CAKI-1 renal, with SW-620 colon, with UO-31 renal, in the assay on OVCAR-4 ovarian and with SF-268 CNS was greater than 100 µM in each case. For the same compound, the TGI in the assay on K-562 leukemia and in the assay with SF-539 CNS was greater than 100 µM each time.

Take `CC(=O)Nc1ccc(/C=c2\sc3nnc(/C=C/c4ccccc4)n3c2=O)cc1`: the TGI in the assay on CAKI-1 renal, in the assay on SW-620 colon, with UO-31 renal, with OVCAR-4 ovarian, in the assay on SF-268 CNS and in the assay with K-562 leukemia was greater than 50 µM throughout. The TGI with SF-539 CNS and with OVCAR-3 ovarian was greater than 50 µM in each case.

Consider `Clc1ccc2c(NCCCN3CCN(c4nc(-n5ccnc5)nc5ccccc45)CC3)ccnc2c1`, for which the GI50 is 1.61 µM with HCT-15 colon; 8.91 µM in the assay with CAKI-1 renal; 2.49 µM in the assay on UO-31 renal; greater than 100 µM in the assay on OVCAR-4 ovarian; 2.1 µM in the assay with K-562 leukemia; 1.81 µM with SF-539 CNS. Moreover, the GI50 with OVCAR-3 ovarian is 1.55 µM. Also, the TGI in the assay with HCT-15 colon was 3.8 µM; in the assay with OVCAR-4 ovarian, greater than 100 µM; in the assay on K-562 leukemia, 6.13 µM; in the assay with SF-539 CNS it was 3.34 µM; with OVCAR-3 ovarian, 3.15 µM.

Turning to `COc1ccc(-c2c(N)[n+]([O-])c3cc(C)c(C)cc3[n+]2[O-])cc1OC`, the TGI in the assay on HCT-15 colon, in the assay on CAKI-1 renal, with SW-620 colon, in the assay on UO-31 renal, with OVCAR-4 ovarian and with SF-268 CNS was greater than 100 µM each time. The TGI with K-562 leukemia, with SF-539 CNS and in the assay with OVCAR-3 ovarian was greater than 100 µM throughout.

Consider `CC(NC1CCC[C@H]1O)c1ccccc1` (mixture of isomers), for which the TGI with HCT-15 colon, with SW-620 colon, in the assay on UO-31 renal, in the assay with OVCAR-4 ovarian, in the assay with SF-268 CNS and in the assay with K-562 leukemia was greater than 100 µM in each case. For the same compound, the TGI in the assay with SF-539 CNS and with OVCAR-3 ovarian was greater than 100 µM in each case.

On to `COc1cc(C2C(C(=O)O)=C(C)Oc3cc4c(cc32)OCO4)cc(OC)c1OC` (stereo not given), for which the TGI in the assay on HCT-15 colon, in the assay on CAKI-1 renal, in the assay on SW-620 colon, with UO-31 renal, in the assay with OVCAR-4 ovarian and with K-562 leukemia was greater than 100 µM in each case. For the same compound, the TGI with OVCAR-3 ovarian is 48.1 µM.

As for `CN(C)CC1(C)CC/C(=C\c2ccc3c(c2)OCO3)C1=O` (stereo not given), the TGI in the assay with HCT-15 colon, with CAKI-1 renal, in the assay with SW-620 colon, in the assay with UO-31 renal, in the assay on OVCAR-4 ovarian and in the assay on SF-268 CNS was greater than 100 µM throughout. Also, the TGI with K-562 leukemia, in the assay with SF-539 CNS and with OVCAR-3 ovarian was greater than 100 µM throughout.

Turning to `CCCCCCCCCCCCCCCCCC(=O)NCCCNCCCNC(=O)CCCCCCCCCCCCCCCCC`, the TGI in the assay on HCT-15 colon, with CAKI-1 renal, in the assay on SW-620 colon, with UO-31 renal, in the assay on OVCAR-4 ovarian and in the assay with SF-268 CNS was greater than 100 µM throughout. Moreover, the TGI in the assay on K-562 leukemia and in the assay on OVCAR-3 ovarian was greater than 100 µM in each case.

Take `Nc1nc(N)c(-c2ccccc2)c(C(=O)Nc2ccc(Cl)c(Cl)c2)n1`: the TGI in the assay with HCT-15 colon, in the assay on CAKI-1 renal, in the assay on SW-620 colon, in the assay with UO-31 renal, with OVCAR-4 ovarian and with SF-268 CNS was greater than 100 µM throughout. Moreover, the TGI with K-562 leukemia, with SF-539 CNS and with OVCAR-3 ovarian was greater than 100 µM in each case.

Turning to `COCCN1C2=CCCCC2=Nc2c(N)nc(N)nc21`, the TGI in the assay on HCT-15 colon, in the assay with CAKI-1 renal, with UO-31 renal, in the assay with SF-268 CNS, in the assay on K-562 leukemia and in the assay with SF-539 CNS was greater than 100 µM each time. Further, the TGI with OVCAR-3 ovarian came out at 77.7 µM.

Consider `CC1CC2C3CC(F)C4=CC(=O)C=CC4(C)C3(F)C(O)CC2(C)C1(O)C(=O)CO` (stereo not given), for which the TGI with HCT-15 colon, in the assay on CAKI-1 renal, in the assay on SW-620 colon, in the assay with UO-31 renal, in the assay on OVCAR-4 ovarian and in the assay on SF-268 CNS was greater than 100 µM each time. The TGI with K-562 leukemia, in the assay with SF-539 CNS and in the assay on OVCAR-3 ovarian was greater than 100 µM throughout.

As for `COC(=O)C(C(=O)C(=O)Nc1ccccc1OC)c1csc(-n2nc(-c3ccccc3)cc2-c2ccccc2)n1` (stereo not given), the TGI in the assay on HCT-15 colon, with CAKI-1 renal, in the assay on SW-620 colon, with UO-31 renal, in the assay with OVCAR-4 ovarian and in the assay on SF-268 CNS was greater than 100 µM each time. Also, the TGI in the assay with K-562 leukemia and with OVCAR-3 ovarian was greater than 100 µM each time.

As to `CN/N=C(\C)CC(=O)Nc1cccc(Cl)c1C`, the TGI with HCT-15 colon, in the assay with CAKI-1 renal, with UO-31 renal, with OVCAR-4 ovarian, with SF-268 CNS and with K-562 leukemia was greater than 100 µM throughout. The TGI in the assay on SF-539 CNS and in the assay with OVCAR-3 ovarian was greater than 100 µM throughout.

As to `COc1cc2c(cc1OC)-c1c(cc(OC)c(OC)c1OC)C2=O`, the TGI in the assay on HCT-15 colon, in the assay on SW-620 colon, in the assay on UO-31 renal, with SF-268 CNS, in the assay on K-562 leukemia and in the assay with SF-539 CNS was greater than 100 µM each time. The TGI in the assay with OVCAR-3 ovarian is greater than 100 µM.

Turning to `CC1=CCC2(C#N)CCC1C2=O` (stereo not given), the TGI in the assay with HCT-15 colon, in the assay with CAKI-1 renal, in the assay with SW-620 colon, in the assay on UO-31 renal, in the assay with OVCAR-4 ovarian and with SF-268 CNS was greater than 100 µM in each case. In addition, the TGI in the assay with K-562 leukemia, with SF-539 CNS and with OVCAR-3 ovarian was greater than 100 µM in each case.
